From patent publication US11530186B2, “Inhibitors for the β-catenin / T-cell factor protein-protein interaction” (H. LEE MOFFITT CANCER CENTER AND RESEARCH INSTITUTE, INC., priority 2018, dated 2022) come the findings set out here.

For one test, the system named is SW480 cells. The test is described as follows: MTS cell viability assay, SW480. The class given is cell-based. Conditions: mean ± SD (n = 3). On the procedure: (§1) MTS Cell Viability Assay. Colorectal cancer cells (SW480 and HCT116), TNBC cells (MDA-MB-231, MDA-MB-468, and BT-20), and lung cancer A549 cells were seeded in 96-well plates at 5×10^3 cells/well, maintained overnight at 37° C., and incubated with the tested compounds at various concentrations. Cell viability was monitored after 72 h using a freshly prepared mixture of 1 part phenazine methosulfate (PMS, Sigma) solution (0.92 mg/mL) and 19 parts 3-(4,5-dimethylthiazol-2-yl)-5-(3-carboxymethoxyphenyl)-2-(4-sulfophenyl)-2H-tetrazolium (MTS, Promega) solution (2 mg/mL). Cells were incubated in 10 μL of this solution at 37° C. for 3 h, and A490 was measured. The effect of each compound is expressed as the concentration required to reduce A490 by 50% (IC50) relative to DMSO-treated cells. Experiments were performed in triplicate.
For orientation: Formazan colour is commonly taken as a measure of viable cells.

The next test has as its system A549 cells. Kind of test: MTS cell viability assay, A549. The class given is cell-based. Particulars: Homo sapiens, 72 h, mean ± SD (n = 3), Table 4, read-out: MTS cell viability IC50, Wnt normal A549. How it is done: as §1
For test [1], the target named is T1, β-catenin/Tcf protein-protein interaction (Homo sapiens, UniProt P35222).
T1 construct: Wild-type β-catenin (residues 138-781) were cloned into a pET-28b vector; 6×histidine (C); made in house; host or cells: E. coli BL21 DE3
T1 sequence (P35222 138-781): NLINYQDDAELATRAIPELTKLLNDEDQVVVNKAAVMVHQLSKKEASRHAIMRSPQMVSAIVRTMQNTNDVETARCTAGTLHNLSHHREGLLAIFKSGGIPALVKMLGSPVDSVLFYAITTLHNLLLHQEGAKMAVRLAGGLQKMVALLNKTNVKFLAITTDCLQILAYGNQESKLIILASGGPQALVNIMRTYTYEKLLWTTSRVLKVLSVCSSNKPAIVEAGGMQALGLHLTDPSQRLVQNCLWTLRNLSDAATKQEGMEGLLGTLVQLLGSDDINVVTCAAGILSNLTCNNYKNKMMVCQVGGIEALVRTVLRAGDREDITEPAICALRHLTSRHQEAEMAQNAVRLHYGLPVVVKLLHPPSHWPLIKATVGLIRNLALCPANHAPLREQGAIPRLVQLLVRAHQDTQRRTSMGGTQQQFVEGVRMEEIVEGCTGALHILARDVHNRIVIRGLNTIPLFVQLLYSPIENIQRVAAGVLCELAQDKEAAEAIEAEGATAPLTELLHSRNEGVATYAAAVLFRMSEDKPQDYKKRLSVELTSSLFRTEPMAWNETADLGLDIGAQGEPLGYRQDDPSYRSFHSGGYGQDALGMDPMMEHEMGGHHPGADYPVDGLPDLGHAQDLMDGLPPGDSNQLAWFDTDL
The test is described as follows: FP competitive inhibition assay. In kind it is binding. In a few lines: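 His-tagged human β-catenin (residues 138-781, E. coli-expressed) at 10 nM with 2.5 nM fluorescein-labeled Tcf4 (7-51) in PBS-type buffer with bovine γ-globulin and 0.01% Triton X-100. Compounds added, 1.5 h at 4 °C, 1% DMSO, before fluorescence polarization read. IC50 by nonlinear fit; Ki derived from IC50.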

Test [2] has as its system Wnt/β-catenin transactivation. The test is described as follows: Wnt-responsive TOPFlash luciferase reporter assay, β-catenin-activated HEK cells. In kind it is cell-based. Conditions: HEK293, read-out: TOPFlash IC50 ± SD, β-catenin-activated HEK293, 24 h treatment, mean ± SD (n = 3), read-out: TOPFlash IC50 ± SD, β-catenin-activated HEK239. How it is done:
Cell Transfection and Luciferase Assay. FuGENE 6 (E2962, Promega) in the 96-well plate format was used for the transfection of HEK293 cells according to the manufacturer's instructions. HEK293 cells were co-transfected with 45 ng of the TOPFlash or FOPFlash reporter gene, and 135 ng of pcDNA3.1-β-catenin. Cells were cultured in DMEM and 10% fatal bovine serum (FBS) at 37° C. for 24 h, and different concentrations of inhibitors were then added. After 24 h, the luciferase reporter activity was measured using the Dual-Glo system (E2940, Promega). Normalized luciferase activity in response to the treatment with the inhibitors was compared with that obtained from the cells treated with DMSO. Experiments were performed in triplicate.
On the technique in general: Reporter assays use an easily measured gene product as a stand-in for the process of interest.

For test [3], the system named is Wnt/β-catenin transactivation. The test is described as follows: Wnt-responsive TOPFlash luciferase reporter assay, SW480. Particulars: Homo sapiens, mean ± SD (n = 3), Table 6. The class given is cell-based.
Another test concerns HCT116 cells. The test is described as follows: MTS cell viability assay, HCT116. In kind it is cell-based. Particulars: Homo sapiens, HCT-116; 72 h; mean ± SD (n = 3); Table 5; read-out: MTS cell viability IC50, Wnt hyperactive cancer cells HCT116. On the procedure: as §1
[4] abbreviates: Homo sapiens, SW480, 72 h, Table 4, read-out: MTS cell viability IC50, Wnt hyperactive SW480 Cells (converted).
The mark [5] stands for this setting: Assay 1, mean ± SD (n = 3), read-out: Ki ± SD, Assay 1.
Setting [6] is: Assay 2, mean ± SD (n = 3), read-out: Ki ± SD, Assay 2.
[7] abbreviates: Assay 3, mean ± SD (n = 3), read-out: Ki ± SD, Assay 3.
Where [8] appears, read: Homo sapiens, SW480, 72 h, Table 5, read-out: MTS cell viability IC50, Wnt hyperactive cancer cells SW480.

Structures are written as SMILES. Where two headings read alike, the source gives them in different places.

For the compound `COC(=O)c1ccc2c(c1)c(CCc1ccc(Cl)cc1)c(CCc1nc3ccccc3[nH]1)n2CCc1nn[nH]n1` [Compound 34, Methyl 2-(2-(1H-benzo[d]imidazol-2-yl)ethyl)-1-(2-(2H-tetrazol-5-yl)ethyl)-3-(4-chlorophenethyl)-1H-indole-5-carboxylate], the IC50 – broadly, the concentration that gives 50% inhibition – is 69 ± 11 µM with SW480 cells (setting [4]) and 120 ± 44 µM in the test on A549 cells.

With `COC(=O)c1ccc2c(c1)c(CCc1ccc(Cl)cc1)c(CCc1nc3cc(OC)ccc3s1)n2CCc1nn[nH]n1` [Compound 35, Methyl 1-(2-(2H-tetrazol-5-yl)ethyl)-3-(4-chlorophenethyl)-2-(2-(5-methoxybenzo[d]thiazol-2-yl)ethyl)-1H-indole-5-carboxylate], the inhibition constant (Ki) – broadly, the dissociation constant of the complex between target and ligand, obtained from inhibition or displacement – in test [1] (setting [5]) worked out at 4.1 ± 1.1 µM. Further, the IC50 was 3.2 µM with SW480 cells (72 h, Table 4, read-out: MTS cell viability IC50, Wnt hyperactive SW480 Cells (converted)); 3.1 ± 1.8 µM in the test with SW480 cells (setting [4]); 11 ± 2.3 µM in test [2] (Table 6); 13 ± 5.9 µM in the test with A549 cells; 4.3 ± 1.2 µM in test [3].

Turning to `O=C(NCc1ccc(F)cc1)c1ccc2c(c1)c(CCc1ccc(F)cc1)c(CCc1nc3ccccc3s1)n2CCc1nn[nH]n1` [Compound 44, 1-(2-(2H-tetrazol-5-yl)ethyl)-2-(2-(benzo[d]thiazol-2-yl)ethyl)-N-(4-fluorobenzyl)-3-(4-fluoro-phenethyl)-1H-indole-5-carboxamide], the Ki is 1.6 ± 0.37 µM in test [1] (setting [5]); 0.35 ± 0.15 µM in test [1] (setting [6]); 1.3 ± 0.37 µM in test [1] (setting [7]); 0.92 ± 0.06 µM in test [1] (Assay 4, mean ± SD (n = 3), read-out: Ki ± SD, Assay 4). In addition, the IC50 in the test on SW480 cells (setting [4]) was 12 ± 1.4 µM; in test [2] (Table 6), 42 ± 5.8 µM; with A549 cells, 42 ± 5.8 µM; in test [3] it was 12 ± 1.3 µM.

Regarding `COc1ccc2sc(CCc3c(CCc4ccc(Cl)cc4)c4cc(C(=O)OCc5ccc(Cl)cc5)ccc4n3CCc3nn[nH]n3)nc2c1` [Compound 70, 4-Chlorobenzyl 1-(2-(2H-tetrazol-5-yl)ethyl)-3-(4-chlorophenethyl)-2-(2-(5-methoxybenzo-[d]thiazol-2-yl)ethyl)-1H-indole-5-carboxylate], the Ki stood at 2.6 ± 0.57 µM in test [1] (setting [5]), 0.22 ± 0.06 µM in test [1] (setting [6]) and 2.6 ± 0.32 µM in test [1] (setting [7]). The IC50 is 160 ± 17 µM with SW480 cells (setting [4]) and 310 ± 27 µM in the test with A549 cells.

Regarding `Cc1ccc(CCc2c(-c3ccsc3)n(CCc3nn[nH]n3)c3ccc(C(=O)NOC4CCCCO4)cc23)cc1` (stereo not drawn) [Compound 92, 1-(2-(2H-tetrazol-5-yl)ethyl)-3-(4-methylphenethyl)-N-((tetrahydro-2H-pyran-2-yl)oxy)-2-(thiophen-3-yl)-1H-indole-5-carboxamide], in test [1] (setting [5]), the inhibition constant (Ki) was determined as 10 ± 1.6 µM. Moreover, the values for the IC50 (in the test on SW480 cells (setting [8]); in test [2] (Table 7)) were 81 ± 17 µM and 50 ± 5.7 µM, respectively.

With `Cc1ccc(CCc2c(-c3csc(C(F)F)c3)n(CCc3nn[nH]n3)c3ccc(C(=O)NCc4ccon4)cc23)cc1` [Compound 94, 1-(2-(2H-tetrazol-5-yl)ethyl)-2-(5-(difluoromethyl)thiophen-3-yl)-N-(isoxazol-3-ylmethyl)-3-(4-methylphenethyl)-1H-indole-5-carboxamide], the values for the Ki in test [1] (setting [5]), in test [1] (setting [6]) and in test [1] (setting [7]) were 2.7 ± 0.26 µM, 4.9 ± 0.36 µM and 26 ± 2.7 µM, respectively. Moreover, the IC50 in the test on SW480 cells (setting [8]) stood at 32 ± 3.6 µM; in the test with HCT116 cells it was 46 ± 5.3 µM; in test [2] (Table 7) it was 9.9 ± 1.5 µM.
